# Where two headings read alike, the source gives them in different places.
# Key:
# [1] = system: SDMA in HCT116-MTAP-knockout cell line; assay: Cell symmetric dimethylarginine (SDMA) test, In-cell Western, HCT116-MTAP-knockout; type: cell-based; settings: Homo sapiens, 96 h
# [2] = system: HCT116-MTAP wild-type (+/+)-cell strain; assay: Tumor cell proliferation inhibition assay (CellTiter-Glo), HCT116-MTAP wild-type (+/+); type: cell-based; settings: Homo sapiens, 120 h, HCT116-MTAP wild-type (+/+) cells, 5-day treatment
# Method in brief: (§1)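 Read-out: CellTiter-Glo ATP luminescence after 5-day compound exposure at 37° C./5% CO2. Dosing began 24 h post-seeding, 10 μM top, 1:3 dilutions, 10 points; DMSO-treated cells as reference.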
# [3] = system: DOHH-2 cell strain; assay: Tumor cell proliferation inhibition assay (CellTiter-Glo), DOHH-2; type: cell-based; settings: Homo sapiens, 120 h, DOHH-2 cells, 5-day treatment
# Protocol: After the HCT116-MTAP-knockout (−/−) cell strain, the HCT116-MTAP wild-type(+/+)-cell strain, the DOHH-2 cell strain, or the Hut-78 cell strain was treated with the test compound for 5 days, the ATP level was measured using a CellTiter-Glo kit of Promega to evaluate the inhibition of the test compound against the growth of the tumor cell strain.
# In the present application, the HCT116-MTAP-knockout (−/−) cell strain, the HCT116-MTAP wild-type (+/+)-cell strain, the DOHH-2 cell strain, or the Hut-78 cell strain was seeded into a 96-well cell culture plate at an appropriate cell density. After 24 h, the cells were treated using the test compounds diluted 1:3 fold at the highest concentration of 10 μM for 10 gradients, and a DMSO treatment group was set up separately. The cells were cultured in a 37° C./5% CO2 incubator for 5 days.
# [4] = system: HCT116-MTAP-knockout (−/−) cell strain; assay: Tumor cell proliferation inhibition assay (CellTiter-Glo), HCT116-MTAP-knockout (-/-); type: cell-based; settings: Homo sapiens, 120 h, HCT116-MTAP-knockout (−/−) cells, 5-day treatment
# Method in brief: as §1
# [5] = biological target: MAT2A recombinant protein (Homo sapiens, UniProt P31153); assay: MAT2A inhibitory activity (malachite green colorimetric enzyme assay); type: biochemical
# Method in brief: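 Recombinant human MAT2A with L-methionine and ATP in 50 mM HEPES pH 7.5, 50 mM KCl, 10 mM MgCl2, 10 mM DTT, 60 min at room temperature. Phosphate released detected by malachite green reagent (15 min) at 630 nm. Ten-point 1:3 series from 1000 nM final; IC50 by variable-slope non-linear regression.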
# [6] = system: SDMA in human colon cancer cell line HCT116; assay: Cell symmetric dimethylarginine (SDMA) test, In-cell Western, HCT116 (MTAP wild-type); type: cell-based
# Method in brief: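 HCT116 cells treated 4 days at 37° C with compound, top concentration 6 μM, 1:4 dilutions, 6 points, versus DMSO. Fixed cells stained for SDMA with DRAQ5 normalisation; 800/700 nm ratio after background subtraction fitted by non-linear regression for IC50.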
# [7] = Pharmacokinetic test in mice (IV and PO); type: in vivo; settings: mouse, plasma, BALB/c mice; for half-life: read-out: T½ (converted); for Vd: read-out: Vz
# [8] = system: Hut-78 cell strain; assay: Tumor cell proliferation inhibition assay (CellTiter-Glo), Hut-78; type: cell-based; settings: Hut-78 cells, 5-day treatment
# Method in brief: as §1
# [9] = IC50 score class, read-out: Cell 96 h SDMA Inhibition (HCT116-MTAP−/−) (score)
# [10] = read-out: Cell 96 h SDMA Inhibition (HCT116-MTAP−/−)
# [11] = IC50 score, read-out: Tumor cell 5-day relative growth inhibition (HCT116-MTAP+/+) (nM), score
# [12] = IC50 value, read-out: Tumor cell 5-day relative growth inhibition (HCT116-MTAP+/+)
# [13] = IC50 score, read-out: Tumor cell 5-day relative growth inhibition (DOHH-2) (nM), score
# [14] = IC50 value, read-out: Tumor cell 5-day relative growth inhibition (DOHH-2)
# [15] = IC50 score, read-out: Tumor cell 5-day relative growth inhibition (HCT116-MTAP−/−) (nM), score
# [16] = IC50 value, read-out: Tumor cell 5-day relative growth inhibition (HCT116-MTAP−/−)
# [17] = IC50 score class, read-out: MAT2A Inhibition (score)
# [18] = Homo sapiens, HCT-116, 96 h, IC50 score class, read-out: Cell 96 h SDMA Inhibition (HCT116-MTAP+/+) (score)
# [19] = Homo sapiens, HCT-116, 96 h, read-out: Cell 96 h SDMA inhibition (HCT116-MTAP+/+)
# [20] = Homo sapiens, HuT78, 120 h, IC50 score, read-out: Tumor cell 5-day relative growth inhibition (Hut-78) (nM), score
# [21] = Homo sapiens, HuT78, 120 h, IC50 value, read-out: Tumor cell 5-day relative growth inhibition (Hut-78)
# [22] = IC50 score, read-out: Tumor cell 5-day relative growth inhibition (Hut-78) (nM), score
# [23] = IC50 value, read-out: Tumor cell 5-day relative growth inhibition (Hut-78)
# MAT2A recombinant protein, sequence (P31153 whole entry): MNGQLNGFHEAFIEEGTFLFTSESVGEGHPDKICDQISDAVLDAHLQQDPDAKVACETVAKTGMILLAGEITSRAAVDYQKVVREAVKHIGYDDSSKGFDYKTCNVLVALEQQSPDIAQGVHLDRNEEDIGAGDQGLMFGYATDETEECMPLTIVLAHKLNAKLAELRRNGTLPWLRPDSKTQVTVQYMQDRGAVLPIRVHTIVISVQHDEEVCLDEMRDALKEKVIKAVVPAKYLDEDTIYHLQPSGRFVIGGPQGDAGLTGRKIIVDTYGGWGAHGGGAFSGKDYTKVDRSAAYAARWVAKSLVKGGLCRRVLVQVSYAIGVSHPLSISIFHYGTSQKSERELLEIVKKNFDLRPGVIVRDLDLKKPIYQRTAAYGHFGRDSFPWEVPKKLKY
SMILES,"IC50 [1, 9] [nM]","IC50 [1, 10] [nM]","IC50 [3, 13] [nM]","IC50 [3, 14] [nM]","IC50 [5, 17] [nM]",IC50 ([5]; read-out: MAT2A Inhibition) [nM],"IC50 [6, 18] [nM]","IC50 [6, 19] [nM]",further results
O=c1c2[nH]ncc2c2ccc(Cl)cc2n1-c1cccnc1 [Compound B13],< 200,188,500 to 2000,979,< 100,17.2,1000 to 3000,2790,"IC50 [2, 11]: 500 to 2000 nM; IC50 [2, 12]: 928 nM; IC50 [4, 15]: < 500 nM; IC50 [4, 16]: 282 nM"
CCn1nc2c(=O)n(-c3cccnc3)c3cc(Cl)ccc3c2c1C [Compound B17],< 200,51.5,< 500,396,< 100,24,200 to 1000,635,"AUC ([7]; IV 2 mg/kg): 3.46 µM·h; clearance ([7]; IV 2 mg/kg): 27.7 mL/min/kg; bioavailability ([7]; IV 2 mg/kg, PO 10 mg/kg): 127%; half-life ([7]; IV 2 mg/kg): 14.4 min; Vd ([7]; IV 2 mg/kg): 0.6 L/kg; AUC ([7]; PO 10 mg/kg): 22.5 µM·h; half-life ([7]; PO 10 mg/kg): 28.2 min"
CCn1cc2c(n1)c(=O)n(-c1cccnc1)c1nc(C(F)(F)F)ccc21 [Compound B29],< 200,90.4,500 to 2000,719,< 100,18.5,200 to 1000,599,"IC50 [2, 11]: < 500 nM; IC50 [2, 12]: 437 nM; IC50 [4, 15]: < 500 nM; IC50 [4, 16]: 154 nM; AUC ([7]; IV 2 mg/kg): 1.86 µM·h; clearance ([7]; IV 2 mg/kg): 46.7 mL/min/kg; bioavailability ([7]; IV 2 mg/kg, PO 10 mg/kg): 95%; half-life ([7]; IV 2 mg/kg): 18 min; Vd ([7]; IV 2 mg/kg): 1.3 L/kg; AUC ([7]; PO 10 mg/kg): 9.32 µM·h; half-life ([7]; PO 10 mg/kg): 25.8 min"
CCn1cc2c(n1)c(=O)n(-c1cccnc1C)c1cc(Cl)ccc21 [Compound B30],< 200,7.6,< 500,400,< 100,32.7,200 to 1000,230,"IC50 [8, 20]: < 500 nM; IC50 [8, 21]: 33.1 nM"
CCn1cc2c(n1)c(=O)n(-c1cccnc1C(F)(F)F)c1cc(Cl)ccc21 [Compound B32],< 200,53.9,≥ 2000,2700,< 100,43.5,1000 to 3000,2260,–
CC(C)n1cc2c(n1)c(=O)n(-c1cccnc1)c1cc(Cl)ccc21 [Compound B39],200 to 1000,586,≥ 2000,3790,–,–,1000 to 3000,1530,"IC50 [8, 20]: < 500 nM; IC50 [8, 21]: 98.6 nM"
O=c1c2nn(CC(F)F)cc2c2ccc(Cl)cc2n1-c1cccnc1 [Compound B40],200 to 1000,376,≥ 2000,2400,–,–,> 3000,4470,"IC50 [8, 20]: 500 to 2000 nM; IC50 [8, 21]: 1290 nM"
COCCn1cc2c(n1)c(=O)n(-c1cccnc1)c1cc(Cl)ccc21 [Compound B45],< 200,132,≥ 2000,2020,< 100,27.4,> 3000,3220,–
O=c1c2nn(Cc3cccnc3)cc2c2ccc(Cl)cc2n1-c1cccnc1 [Compound B47],< 200,154,500 to 2000,1670,< 100,29.7,> 3000,47000,"IC50 [8, 20]: < 500 nM; IC50 [8, 21]: 200 nM"
CCn1cc2c(n1)c(=O)n(-c1cnccc1C)c1cc(Cl)ccc21 [Compound B51],> 3000,8520,≥ 2000,7690,< 100,40.8,> 3000,> 10000,–
Cc1ncccc1-n1c(=O)c2nn(C)cc2c2ccc(Cl)cc21 [Compound B65],–,–,< 500,62.9,< 100,34.1,–,–,"IC50 [8, 22]: < 500 nM; IC50 [8, 23]: 23.8 nM; IC50 ([6]; 96 h, IC50 score class, read-out: Cell 96 h SDMA Inhibition (HCT116-MTAP+/+) (score)): < 200 nM; IC50 ([6]; 96 h, read-out: Cell 96 h SDMA inhibition (HCT116-MTAP+/+)): 191 nM"
Cn1cc2c(n1)c(=O)n(-c1cccnc1)c1cc(C(F)(F)F)ccc21 [Compound B69],< 200,109,500 to 2000,1150,< 100,28,1000 to 3000,1470,–
Cc1ncccc1-n1c(=O)c2nn(C)cc2c2ccc(C3CC3)cc21 [Compound B74],< 200,19.3,< 500,340,< 100,44.3,200 to 1000,261,–
Cc1ncccc1-n1c(=O)c2nn(C)cc2c2ccc(C(F)(F)F)nc21 [Compound B76],< 200,10,< 500,82,–,–,200 to 1000,216,"IC50 [8, 22]: < 500 nM; IC50 [8, 23]: 10.6 nM"
